Measured values from US20230310388A1, “Methods and Compositions for Treating Fungal Infections” (Neoculi Pty Ltd, priority 2020, published 2023).
Converted amounts (≈) assume the structure as drawn. “And” between values parts separate entries of the source, which are not always exact repeats. Equal values may be shown once.

Tests used:
[1] = tested on: C. albicans; experiment: Fluconazole MIC given as descriptor of azole resistant clinical isolates (Table 10); type: cell-based; details: Candida albicans
[2] = tested on: Candida albicans; experiment: CLSI broth microdilution MIC (Example 3); type: cell-based
Description: (§1) Antifungal minimum inhibitory concentration (MIC) testing was undertaken as recommended by the CLSI. Briefly, antifungal susceptibility tests were performed for amphotericin B, robenidine (NCL812) and 5 robenidine analogs (NCL062, NCL195, NCL219, NCL259, NCL265) by standard broth microdilution method (CLSI) in RPMI 1640. Various concentrations (ranging from high to low) of the selected compounds were prepared in RPMI 1640 medium by double dilution in 96-well microtitre plates. Each well contained an inoculum of approximately 2×10^3 cells/mL. The wells without addition of drugs served as negative (no inoculum) and positive (inoculum only) growth controls. Microtitre plates were incubated at 35° C. for 24-48 hours. […] Antifungal MICs were determined for each isolate in duplicate; if the values obtained were different, the MIC test was repeated a third time. Antifungal susceptibility tests were performed for amphotericin B and NCL analogs by standard broth microdilution method (CLSI). Briefly, various concentrations (ranging from high to low) of the selected compounds were prepared in RPMI 1640 medium by double dilution in the 96-well plates. Each well contained an inoculum of approximately 2×10^3 cells/mL. The wells without addition of drugs served as a negative control. Micro plates were incubated at 35° C. for 48 hour and read spectrophotometrically at 600 nm, using a microplate reader (Multiskan-EX; Thermo Elect. Corp., USA).

[3] = tested on: Candida parapsilosis; experiment: CLSI broth microdilution MIC (Example 3); type: cell-based; details: Candida parapsilosis ATCC 22019
Description: as §1

[4] = tested on: Candida albicans; experiment: CLSI broth microdilution MIC (Example 4); type: cell-based
Outline: (§2)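 CLSI broth microdilution in RPMI 1640 with two-fold compound dilutions and inoculum about 2×10^3 cells/mL. Plates incubated 35° C for 24-48 hours; MICs determined in duplicate, with a third test when the duplicates differed.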

[5] = tested on: Cryptococcus neoformans; experiment: CLSI broth microdilution MIC (Example 4); type: cell-based
Outline: as §2

[6] = tested on: Candida albicans; experiment: CLSI broth microdilution MIC (Example 5); type: cell-based
Outline: (§3)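 Broth microdilution per CLSI in RPMI 1640 with twofold compound dilutions, inoculum about 2×10^3 cells/mL. Plates incubated at 35° C for 24-48 hours. MIC determined per isolate in duplicate, with a third repeat when the two values differed.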

[7] = tested on: Cryptococcus neoformans; experiment: CLSI broth microdilution MIC (Example 5); type: cell-based
Outline: as §3

[8] = tested on: Candida albicans; experiment: CLSI broth microdilution MIC (Example 6); type: cell-based
Outline: (§4)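 CLSI broth microdilution in RPMI 1640, compounds serially double-diluted, inoculum about 2×10^3 cells/mL. Incubation at 35° C for 24-48 hours. MICs determined per isolate in duplicate, with a third repeat if values differed.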

[9] = tested on: Cryptococcus neoformans; experiment: CLSI broth microdilution MIC (Example 6); type: cell-based
Outline: as §4

[10] = tested on: C. gattii; experiment: CLSI broth microdilution MIC (Example 6); type: cell-based, Cryptococcus gattii
Outline: as §4

[11] = tested on: Candida albicans ATCC14053; experiment: Broth micro-dilution screen at 16 μg/mL and MIC (Example 9); type: cell-based
Description: The antifungal activity of 201 NCL analogs against Candida albicans ATCC14053 in vitro was investigated. A broth micro-dilution method was used, according to CLSI guidelines as described. NCL analogs were dissolved in DMSO and originally screened at a single concentration of 16 μg/mL.

In the case of `OC(Cn1cncn1)(Cn1cncn1)c1ccc(F)cc1F` [Fluconazole], the MIC ([1]; C. albicans 12-93301752 Azole Resistant) is reported as 32 µg/mL (≈ 104 µM), the MIC ([1]; C. albicans 14-90045999 Azole Resistant) is reported as 64 µg/mL (≈ 209 µM) and the MIC ([1]; C. albicans 16-24136919 Azole Resistant) is reported as 256 µg/mL (≈ 836 µM). For the same molecule, the MIC ([1]; C. albicans 18-148-08188 Azole Resistant) was 8 µg/mL (≈ 26.1 µM).
`[H]/N=C(\N)NN=C(CCCCCC)c1ccc(Cl)cc1` [NCL265] showed an MIC ([2]; Candida albicans ATCC 90028, 1st) of 2 µg/mL (≈ 7.12 µM), an MIC ([2]; Candida albicans ATCC 90028, 2nd) of 2 µg/mL (≈ 7.12 µM) and an MIC ([2]; Candida albicans, 1st) of 2 µg/mL (≈ 7.12 µM). The MIC ([2]; Candida albicans, 2nd) was 4 µg/mL (≈ 14.2 µM), the MIC ([3]; 1st) was 2 µg/mL (≈ 7.12 µM) and the MIC ([3]; 2nd) was 2 µg/mL (≈ 7.12 µM). The “MIC at 24-48 hours” value ([4]; Candida albicans ATCC 90028) was 8 µg/mL (≈ 28.5 µM), the “MIC at 24-48 hours” value ([4]; Candida albicans SA3) was 8 µg/mL (≈ 28.5 µM) and the “antifungal activity against the two isolates of Candida albicans” value ([4]; summary in words) was “high antifungal activity”. The “MIC at 24-48 hours” value ([5]; Cryptococcus neoformans SA1) was 1 µg/mL (≈ 3.56 µM), the “MIC at 24-48 hours” value ([5]; Cryptococcus neoformans SA2) was 1 µg/mL (≈ 3.56 µM) and the MIC ([6]; C. albicans SA3) was 8 µg/mL (≈ 28.5 µM). The MIC ([6]; Candida albicans ATCC 90028) was 8 µg/mL (≈ 28.5 µM), the MIC ([6]; clinical isolate C. albicans 12-93301752 Azole Resistant) was 2 µg/mL (≈ 7.12 µM) and the MIC ([6]; clinical isolate C. albicans 14-90045999 Azole Resistant) was 16 µg/mL (≈ 57 µM). For the same molecule, the MIC ([6]; clinical isolate C. albicans 15-45171061) was 8 µg/mL (≈ 28.5 µM), the MIC ([6]; clinical isolate C. albicans 15-91329871) was 16 µg/mL (≈ 57 µM) and the MIC ([6]; clinical isolate C. albicans 16-24136919 Azole Resistant) was 4 µg/mL (≈ 14.2 µM). The MIC ([6]; clinical isolate C. albicans 16-46177400) was 16 µg/mL (≈ 57 µM), the MIC ([6]; clinical isolate C. albicans 16-90050810) was 16 µg/mL (≈ 57 µM) and the MIC ([6]; clinical isolate C. albicans 16-90054237) was 16 µg/mL (≈ 57 µM). The MIC ([6]; clinical isolate C. albicans 18-144-00196) was over 16 µg/mL, the MIC ([6]; clinical isolate C. albicans 18-148-08188 Azole Resistant) was 16 µg/mL (≈ 57 µM) and the “activity against one or more isolates of Cryptococcus neoformans and Candida albicans” value ([6]; summary in words) was “highly active”. For the same molecule, the MIC ([7]; Cryptococcus neoformans SA1) was 1 µg/mL (≈ 3.56 µM), the MIC ([7]; Cryptococcus neoformans SA2) was 1 µg/mL (≈ 3.56 µM) and the MIC ([8]; C. albicans SA3) was 8 µg/mL (≈ 28.5 µM). For the same molecule, the MIC ([8]; Candida albicans ATCC 90028) was 8 µg/mL (≈ 28.5 µM), the MIC ([9]; Cryptococcus neoformans SA1) was 1 µg/mL (≈ 3.56 µM) and the MIC ([9]; Cryptococcus neoformans SA2) was 1 µg/mL (≈ 3.56 µM). It also gave an MIC ([9]; human clinical isolate C. neoformans serotype A/D hybrid) of 8 µg/mL (≈ 28.5 µM), an MIC ([9]; human clinical isolate C. neoformans var grubii 16-90050434) of 4 µg/mL (≈ 14.2 µM) and an MIC ([9]; human clinical isolate C. neoformans var grubii 17-90028233) of 8 µg/mL (≈ 28.5 µM). The MIC ([9]; human clinical isolate C. neoformans var grubii 17-93996464) was 8 µg/mL (≈ 28.5 µM), the MIC ([9]; human clinical isolate C. neoformans var grubii 17-93996964) was 8 µg/mL (≈ 28.5 µM) and the MIC ([10]; human clinical isolate C. gatti 17-90232099) was 8 µg/mL (≈ 28.5 µM). For the same molecule, the MIC ([10]; human clinical isolate C. gattii 16-90050373) was 8 µg/mL (≈ 28.5 µM), the MIC ([10]; human clinical isolate C. gattii 17-90028211) was 8 µg/mL and 16 µg/mL and the MIC ([10]; human clinical isolate C. gattii 17-90028217) was 4 µg/mL (≈ 14.2 µM). For the same molecule, the MIC ([10]; human clinical isolate C. gattii 17-90028242) was 8 µg/mL (≈ 28.5 µM), the MIC ([11]; C. albicans ATCC14053, test range 0.25-64 μg/mL, duplicate) was 2 µg/mL (≈ 7.12 µM) and the “Screen at 16 μg/mL” value ([11]; single concentration 16 μg/mL, Growth or No growth of C. albicans ATCC14053) was “No growth”.
